Reference: PMC5522996, “Big conductance calcium‐activated potassium channel openers control spasticity without sedation” (British Journal of Pharmacology, 2017)

Legend:
mouse vas deferens = experiment: Electrically‐evoked contraction of the mouse vas deferens; format: cell-based; settings: Mus musculus, read-out: EC50, inhibition of electrically‐evoked contraction
Procedure: Vasa deferentia were obtained from outbred MF‐1 mice and mounted vertically in a 4 mL organ bath at an initial tension of 0.5 g. The baths contained Mg^2+‐free Krebs solution (NaCl 118.2 mM, KCl 4.75 mM, KH2PO4 1.19 mM, NaHCO3 25.0 mM, glucose 11.0 mM and CaCl2·6H2O 2.54 mM), which was kept at 35–36°C and bubbled with 95% O2 and 5% CO2. […] Contractions were monitored by a computer using a data recording and analysis system as described previously (Ross et al., 2001). After placement in an organ bath, each tissue was subjected to a stimulation‐free period of 10 min and then stimulated for 10 min. Tissues were then subjected to alternate periods of stimulation (5 min) and rest (10 min) until consistent twitch amplitudes were obtained. This equilibration procedure was followed by a stimulation‐free period of 25 min. Tissues were then stimulated for 5 min after which the first agonist addition was made and stimulation continued until the end of the experiment.

[1] = Plasma, brain and spinal cord levels in ABH mice with spastic EAE; format: in vivo, mouse
Procedure: The stability of compounds when subjected to hepatic and plasma degradation was assessed in vitro by Inpharmatica, Cambridge, UK. Compounds (1 μM) were incubated with either pooled mouse liver microsomes (0.1 mg protein mL^−1) or pooled mouse plasma at 37°C for 0, 5, 10, 20 and 40 min before termination with acetonitrile containing warfarin as an analytical internal standard. Samples were centrifuged, and the resultant supernatant analysed for parent compound. The mass responses at baseline were taken as the 100% reference values against which the disappearance of the compound was measured. The natural log of the % remaining values was used to generate linear plots of disappearance of the compounds. Half‐life values were calculated from the slope of these plots. Hepatocyte metabolism was assessed by Cyprotex, Macclesfield, and 10 μM VSN16R was incubated with primary mouse, rat, monkey (Macaque) and human hepatocytes for 1 h, and the presence of metabolites was assessed using liquid […] mass spectroscopy. The stability of VSN16R was assessed in vivo by Inpharmatica, Cyprotex and Charles Rivers, Cambridge. Blood (plasma) samples were obtained prior to and 5 min to 24 h after drug administration of 2–5 mg·kg^−1 i.v. or 5 mg·kg^−1 p.o. VSN16R into outbred mice and rats (n = 3 per time point). In addition, plasma, brain and spinal cord samples were obtained from ABH with spastic EAE. Immediately after blood collection, the brain and spinal cord were removed and then stored at −20°C prior to assay. Tissue samples were weighed, homogenized and centrifuged, and the lysates generated. Brain lysates and plasma were assayed by LC–MS methods by Inpharmatica/Charles Rivers, Cambridge, UK. This was also performed using a Waters Xevo TQ or API4000, AB Sciex mass spectrometer using spiked samples as standards. PK Solutions Software (Summit Research Services, Montrose, CO, USA), AB Sciex Analyst software combined with Thermo Fisher Scientific Watson LIMS processing and reporting software or WinNonLin pharmacokinetic or PK solutions 2.0 software (Summit Research Services, Montrose CO, USA) were used to produce PK parameters. Data are expressed as mean ± SEM. The detection limit of VSN16R was 2 ng·mL^−1 in plasma and brain and 14 ng·mL^−1 in spinal cords. The detection limit of VSN22R was 2 ng·mL^−1 in plasma and 0.1 ng·mL^−1 for VSN44R in plasma. Pharmacokinetics in toxicological samples in rats (n = 6 per group), dogs (n = 6 per group) and humans (n = 6 per group) were performed by Charles Rivers (Edinburgh, UK).

[2] = Stability in pooled mouse liver microsomes; format: in vitro ADME; settings: pooled mouse liver microsomes, 37°C, upper limit 100 min, read-out: t ½ in liver microsomes
Procedure: (§1) The stability of compounds when subjected to hepatic and plasma degradation was assessed in vitro by Inpharmatica, Cambridge, UK. Compounds (1 μM) were incubated with either pooled mouse liver microsomes (0.1 mg protein mL^−1) or pooled mouse plasma at 37°C for 0, 5, 10, 20 and 40 min before termination with acetonitrile containing warfarin as an analytical internal standard. Samples were centrifuged, and the resultant supernatant analysed for parent compound. The mass responses at baseline were taken as the 100% reference values against which the disappearance of the compound was measured. The natural log of the % remaining values was used to generate linear plots of disappearance of the compounds. Half‐life values were calculated from the slope of these plots. Hepatocyte metabolism was assessed by Cyprotex, Macclesfield, and 10 μM VSN16R was incubated with primary mouse, rat, monkey (Macaque) and human hepatocytes for 1 h, and the presence of metabolites was assessed using liquid […] mass spectroscopy. The stability of VSN16R was assessed in vivo by Inpharmatica, Cyprotex and Charles Rivers, Cambridge. Blood (plasma) samples were obtained prior to and 5 min to 24 h after drug administration of 2–5 mg·kg^−1 i.v. or 5 mg·kg^−1 p.o. VSN16R into outbred mice and rats (n = 3 per time point). […] Data are expressed as mean ± SEM. […]

[3] = Stability in pooled mouse plasma; format: in vitro ADME; settings: 37°C, upper limit 100 min, read-out: t ½ in plasma
Procedure: as §1

CYP450 2D6 = biological target: T1, CYP450 2D6 (Homo sapiens, UniProt P10635); experiment: CYP450 inhibition of dextromethorphan substrate in liver microsomes; format: in vitro ADME; settings: read-out: IC50 Inhibition of substrate binding, VSN16R
T1 construct: from tissue; host or cells: liver microsomes
T1 sequence (P10635 whole entry): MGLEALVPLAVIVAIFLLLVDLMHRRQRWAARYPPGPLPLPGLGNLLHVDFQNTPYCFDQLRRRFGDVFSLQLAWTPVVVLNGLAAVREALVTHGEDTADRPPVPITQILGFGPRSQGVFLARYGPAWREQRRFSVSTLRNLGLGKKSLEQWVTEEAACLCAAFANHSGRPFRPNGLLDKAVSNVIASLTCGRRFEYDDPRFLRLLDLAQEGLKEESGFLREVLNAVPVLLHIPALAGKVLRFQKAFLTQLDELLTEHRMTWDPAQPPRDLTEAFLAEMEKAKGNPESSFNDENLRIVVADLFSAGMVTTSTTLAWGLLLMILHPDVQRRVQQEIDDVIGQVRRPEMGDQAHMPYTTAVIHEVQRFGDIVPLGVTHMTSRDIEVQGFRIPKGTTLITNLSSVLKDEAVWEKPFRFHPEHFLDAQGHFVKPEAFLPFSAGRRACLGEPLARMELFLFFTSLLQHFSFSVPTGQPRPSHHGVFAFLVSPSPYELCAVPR
Excerpt: (§2) Inhibition of binding of either 3-cyano-7-ethoxycoumarin, dibenzylfluorescein or 7-benzyoxy-4-
(§3) (trifluoromethyl) coumarin in human enzyme transfected BTI NN-5B1-4 cells or Sf9 insect cells or
(§4) inhibition of dextromethorphan substrate to CYP450 2D6 in liver microsomes.

CYP450 2E1 = biological target: T2, CYP450 2E1 (Homo sapiens, UniProt P05181); experiment: CYP450 inhibition of substrate binding; format: in vitro ADME; settings: read-out: IC50 Inhibition of substrate binding, VSN16R
T2 construct: host or cells: BTI NN-5B1-4 or Sf9 insect cells
T2 sequence (P05181 whole entry): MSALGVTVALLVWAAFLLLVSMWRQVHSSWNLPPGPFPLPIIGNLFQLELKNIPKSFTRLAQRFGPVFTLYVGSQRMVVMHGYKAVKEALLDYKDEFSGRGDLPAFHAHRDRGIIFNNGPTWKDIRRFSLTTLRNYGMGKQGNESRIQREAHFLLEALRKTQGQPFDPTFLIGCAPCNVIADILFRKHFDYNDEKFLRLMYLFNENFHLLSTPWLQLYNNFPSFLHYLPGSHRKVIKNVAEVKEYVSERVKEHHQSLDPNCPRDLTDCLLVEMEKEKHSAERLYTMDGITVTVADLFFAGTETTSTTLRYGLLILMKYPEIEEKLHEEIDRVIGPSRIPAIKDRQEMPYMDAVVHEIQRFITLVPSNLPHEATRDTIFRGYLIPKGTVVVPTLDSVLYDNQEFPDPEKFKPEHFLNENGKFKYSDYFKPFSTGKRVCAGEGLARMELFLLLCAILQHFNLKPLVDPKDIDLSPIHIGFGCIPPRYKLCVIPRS
Excerpt: as §2, §3, §4

α1(non-selective) = experiment: Receptor binding profile of VSN16R; design: species or system human; settings: 10µM VSN16R
α2(non-selective) = experiment: Receptor binding profile of VSN16R; design: species or system human; settings: 10µM VSN16R
CXCR2 = biological target: T3, CXCR2 (Homo sapiens, UniProt P25025); experiment: Receptor binding profile of VSN16R; settings: 10µM VSN16R
T3 construct: purchased Cerep; Chantest; DiscoveRx; Multispan; MDS Pharma Services
T3 sequence (P25025 whole entry): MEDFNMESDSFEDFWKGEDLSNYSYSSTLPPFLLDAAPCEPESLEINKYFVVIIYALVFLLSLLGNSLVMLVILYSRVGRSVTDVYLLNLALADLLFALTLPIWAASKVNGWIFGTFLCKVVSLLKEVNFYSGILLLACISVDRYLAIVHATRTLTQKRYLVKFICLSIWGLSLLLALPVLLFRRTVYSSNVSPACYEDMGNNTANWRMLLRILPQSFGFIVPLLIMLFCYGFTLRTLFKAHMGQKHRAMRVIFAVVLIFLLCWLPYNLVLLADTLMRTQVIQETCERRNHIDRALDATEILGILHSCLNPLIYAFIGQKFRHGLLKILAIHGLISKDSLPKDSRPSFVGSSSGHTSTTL

H1 = biological target: T4, H1 (Homo sapiens, UniProt P35367); experiment: Receptor binding profile of VSN16R; settings: 10µM VSN16R
T4 construct: purchased Cerep; Chantest; DiscoveRx; Multispan; MDS Pharma Services
T4 sequence (P35367 whole entry): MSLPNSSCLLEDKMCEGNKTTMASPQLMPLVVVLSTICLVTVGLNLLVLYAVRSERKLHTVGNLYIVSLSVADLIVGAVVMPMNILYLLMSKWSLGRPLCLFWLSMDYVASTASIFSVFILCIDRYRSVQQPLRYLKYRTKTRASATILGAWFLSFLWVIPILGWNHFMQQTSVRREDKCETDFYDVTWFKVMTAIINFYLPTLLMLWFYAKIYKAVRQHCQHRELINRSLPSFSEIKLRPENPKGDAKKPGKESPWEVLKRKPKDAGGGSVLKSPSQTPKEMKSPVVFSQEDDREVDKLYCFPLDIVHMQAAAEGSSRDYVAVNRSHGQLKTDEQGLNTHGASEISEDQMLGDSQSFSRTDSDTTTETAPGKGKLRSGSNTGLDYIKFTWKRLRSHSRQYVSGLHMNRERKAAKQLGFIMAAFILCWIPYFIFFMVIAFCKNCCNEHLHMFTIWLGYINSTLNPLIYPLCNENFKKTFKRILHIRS

MC4 = biological target: T5, MC4 (Homo sapiens, UniProt P32245); experiment: Receptor binding profile of VSN16R; settings: 10µM VSN16R
T5 construct: purchased Cerep; Chantest; DiscoveRx; Multispan; MDS Pharma Services
T5 sequence (P32245 whole entry): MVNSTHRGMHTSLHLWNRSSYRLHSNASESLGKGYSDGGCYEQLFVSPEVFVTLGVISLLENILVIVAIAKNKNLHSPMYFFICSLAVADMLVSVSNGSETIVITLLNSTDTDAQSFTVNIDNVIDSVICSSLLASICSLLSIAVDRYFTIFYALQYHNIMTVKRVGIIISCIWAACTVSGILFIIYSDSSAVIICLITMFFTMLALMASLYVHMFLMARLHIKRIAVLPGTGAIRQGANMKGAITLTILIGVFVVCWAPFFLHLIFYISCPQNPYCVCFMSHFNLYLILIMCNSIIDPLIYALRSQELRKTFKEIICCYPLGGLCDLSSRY

M2 = biological target: T6, M2 (Homo sapiens, UniProt P08172); experiment: Receptor binding profile of VSN16R; settings: 10µM VSN16R
T6 construct: purchased Cerep; Chantest; DiscoveRx; Multispan; MDS Pharma Services
T6 sequence (P08172 whole entry): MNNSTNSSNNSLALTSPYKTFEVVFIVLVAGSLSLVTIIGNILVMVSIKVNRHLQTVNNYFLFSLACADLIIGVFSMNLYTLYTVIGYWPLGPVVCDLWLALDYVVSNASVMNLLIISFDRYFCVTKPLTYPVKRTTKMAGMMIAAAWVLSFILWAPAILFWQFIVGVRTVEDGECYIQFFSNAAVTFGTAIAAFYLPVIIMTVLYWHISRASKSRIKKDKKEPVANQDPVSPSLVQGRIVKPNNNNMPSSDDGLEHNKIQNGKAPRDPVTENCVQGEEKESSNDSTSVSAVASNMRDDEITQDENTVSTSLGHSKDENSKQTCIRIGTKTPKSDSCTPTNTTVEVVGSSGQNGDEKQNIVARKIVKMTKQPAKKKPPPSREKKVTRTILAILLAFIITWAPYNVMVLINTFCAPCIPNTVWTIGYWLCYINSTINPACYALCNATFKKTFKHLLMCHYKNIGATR

5-HT5A = biological target: T7, 5-HT5A (Homo sapiens, UniProt P47898); experiment: Receptor binding profile of VSN16R; settings: 10µM VSN16R
T7 construct: purchased Cerep; Chantest; DiscoveRx; Multispan; MDS Pharma Services
T7 sequence (P47898 whole entry): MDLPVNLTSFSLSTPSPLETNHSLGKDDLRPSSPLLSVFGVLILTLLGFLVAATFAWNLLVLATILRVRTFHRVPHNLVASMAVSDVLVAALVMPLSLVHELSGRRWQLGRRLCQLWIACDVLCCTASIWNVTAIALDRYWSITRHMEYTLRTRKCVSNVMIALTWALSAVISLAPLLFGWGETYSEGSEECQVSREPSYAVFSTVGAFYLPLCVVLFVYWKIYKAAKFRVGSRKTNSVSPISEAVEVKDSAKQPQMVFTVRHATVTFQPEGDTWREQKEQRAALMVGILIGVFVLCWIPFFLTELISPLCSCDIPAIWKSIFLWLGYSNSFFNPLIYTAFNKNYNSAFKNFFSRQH

K+V channel = experiment: Receptor binding profile of VSN16R; design: species or system human; settings: 10µM VSN16R
[4] = biological target: T8, fatty acid amide hydrolase (Homo sapiens, UniProt O00519); experiment: Receptor binding profile of VSN16R; settings: 10µM VSN16R
T8 construct: purchased Cerep; Chantest; DiscoveRx; Multispan; MDS Pharma Services

GPR12 = biological target: T9, GPR12 (Homo sapiens, UniProt P47775); experiment: Receptor binding profile of VSN16R; settings: 10µM VSN16R
T9 construct: purchased Cerep; Chantest; DiscoveRx; Multispan; MDS Pharma Services
T9 sequence (P47775 whole entry): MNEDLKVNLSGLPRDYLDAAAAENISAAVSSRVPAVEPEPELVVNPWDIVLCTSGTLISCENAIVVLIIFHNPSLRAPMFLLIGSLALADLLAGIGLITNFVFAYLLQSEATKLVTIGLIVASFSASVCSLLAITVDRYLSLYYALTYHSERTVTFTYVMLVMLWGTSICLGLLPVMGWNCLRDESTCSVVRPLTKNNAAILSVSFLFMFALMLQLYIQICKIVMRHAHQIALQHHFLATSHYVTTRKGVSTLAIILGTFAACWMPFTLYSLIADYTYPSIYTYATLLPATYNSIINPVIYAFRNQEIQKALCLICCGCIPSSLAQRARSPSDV

EDG4 = biological target: T10, EDG4 (Homo sapiens, UniProt Q9HBW0); experiment: Receptor binding profile of VSN16R; settings: 10µM VSN16R
T10 construct: purchased Cerep; Chantest; DiscoveRx; Multispan; MDS Pharma Services
T10 sequence (Q9HBW0 whole entry): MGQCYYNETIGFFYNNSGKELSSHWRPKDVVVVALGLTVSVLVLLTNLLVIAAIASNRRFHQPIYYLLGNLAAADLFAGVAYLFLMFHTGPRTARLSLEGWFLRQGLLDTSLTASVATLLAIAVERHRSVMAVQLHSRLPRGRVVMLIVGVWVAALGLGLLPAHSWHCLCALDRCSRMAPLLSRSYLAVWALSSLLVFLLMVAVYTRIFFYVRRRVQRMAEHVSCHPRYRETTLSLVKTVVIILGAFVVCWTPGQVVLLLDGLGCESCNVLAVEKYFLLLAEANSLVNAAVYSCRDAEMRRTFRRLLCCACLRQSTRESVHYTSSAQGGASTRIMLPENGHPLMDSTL

EDG5 = biological target: T11, EDG5 (Homo sapiens, UniProt O95136); experiment: Receptor binding profile of VSN16R; settings: 10µM VSN16R
T11 construct: purchased Cerep; Chantest; DiscoveRx; Multispan; MDS Pharma Services
T11 sequence (O95136 whole entry): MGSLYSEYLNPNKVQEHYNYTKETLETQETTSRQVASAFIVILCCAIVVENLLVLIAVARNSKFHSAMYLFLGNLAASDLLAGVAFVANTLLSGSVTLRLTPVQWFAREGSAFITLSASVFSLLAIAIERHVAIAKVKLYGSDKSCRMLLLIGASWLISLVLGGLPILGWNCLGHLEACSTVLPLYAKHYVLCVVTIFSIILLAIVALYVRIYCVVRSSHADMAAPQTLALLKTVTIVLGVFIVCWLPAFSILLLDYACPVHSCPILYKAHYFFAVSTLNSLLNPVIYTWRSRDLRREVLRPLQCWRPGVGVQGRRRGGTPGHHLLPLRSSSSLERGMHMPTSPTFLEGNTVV

GlyR = experiment: Receptor binding profile of VSN16R; design: species or system human; settings: 10µM VSN16R
CYP450 2C19 = CYP450 2C19 (Homo sapiens, UniProt P33261)
Sequence of CYP450 2C19 (P33261 whole entry): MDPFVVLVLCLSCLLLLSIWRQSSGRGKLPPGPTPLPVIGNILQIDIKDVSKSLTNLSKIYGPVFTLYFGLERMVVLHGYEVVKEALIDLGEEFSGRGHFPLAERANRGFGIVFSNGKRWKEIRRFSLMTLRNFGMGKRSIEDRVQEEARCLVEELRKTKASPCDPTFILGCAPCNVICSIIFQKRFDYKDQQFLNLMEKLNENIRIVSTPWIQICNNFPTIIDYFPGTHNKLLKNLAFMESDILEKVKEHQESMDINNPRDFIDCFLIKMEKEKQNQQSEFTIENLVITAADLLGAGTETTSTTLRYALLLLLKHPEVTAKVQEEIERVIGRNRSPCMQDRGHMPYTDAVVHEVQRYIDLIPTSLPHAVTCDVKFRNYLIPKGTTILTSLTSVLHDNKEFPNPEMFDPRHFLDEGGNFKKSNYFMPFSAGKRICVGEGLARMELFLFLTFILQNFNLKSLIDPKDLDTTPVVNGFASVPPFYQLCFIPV
Excerpt: as §2, §3, §4

GPR119 = GPR119 (Homo sapiens, UniProt Q8TDV5); experiment: Receptor binding profile of VSN16R; design: purchased Cerep; Chantest; DiscoveRx; Multispan; MDS Pharma Services; settings: 10µM VSN16R
Sequence of GPR119 (Q8TDV5 whole entry): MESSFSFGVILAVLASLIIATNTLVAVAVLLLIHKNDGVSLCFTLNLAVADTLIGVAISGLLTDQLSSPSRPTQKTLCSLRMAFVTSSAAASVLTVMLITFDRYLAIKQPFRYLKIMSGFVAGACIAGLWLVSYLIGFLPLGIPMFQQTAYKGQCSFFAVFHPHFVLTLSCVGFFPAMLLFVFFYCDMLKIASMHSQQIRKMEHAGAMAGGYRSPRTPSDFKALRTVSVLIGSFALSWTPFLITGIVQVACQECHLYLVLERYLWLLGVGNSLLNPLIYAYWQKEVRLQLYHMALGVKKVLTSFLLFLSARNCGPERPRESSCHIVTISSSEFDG

Compound: C[C@H](CO)NC(=O)c1cccc(/C=C\CCCC(=O)N(C)C)c1 [VSN16R]
- EC50 (mouse vas deferens): 0.01 µM
- Plasma level of the named species ([1]; after 5 mg·kg^−1 p.o. VSN16R, ABH mice with spastic EAE): 73.0 ± 6.1 ng/mL
- Mice with drug detected in brains ([1]; chronic EAE animals): 4/4
- Mice with drug detected in spinal cords ([1]; chronic EAE animals): 2/4
- Mice with drug detected in brains ([1]; normal animals): 4/4
- Mice with drug detected in spinal cords ([1]; normal animals): 0/4
- half-life at 1 μM [2]: > 1.67 h
- half-life at 1 μM [3]: > 1.67 h
- IC50 (CYP450 2D6): > 30 µM
- IC50 (CYP450 2E1): > 10 µM
- Activity (α1(non-selective)): Negligible Activity
- Activity (α2(non-selective)): Negligible Activity
- Activity (CXCR2): Negligible Activity
- Activity (H1): Negligible Activity
- Activity (MC4): Negligible Activity
- Activity (M2): Negligible Activity
- Activity (5-HT5A): Negligible Activity
- Activity (K+V channel): Negligible Activity
- Activity [4]: Negligible Activity
- Activity (GPR12): Negligible Activity
- Activity (EDG4): Negligible Activity
- Activity (EDG5): Negligible Activity
- Activity (GlyR): Negligible Activity
- IC50 (CYP450 2C19): > 10 µM
- Activity (GPR119): Negligible Activity
